Results on 1 sequence are retold here after patent US9938328B2, “Use of PEDF-derived polypeptides for treating alopecia and/or hair depigmentation” (MacKay Memorial Hospital, priority 2012, dated 2018).

For assay [1], the system named is C57BL/6 mice. The assay is described as follows: Hydrogen peroxide (oxidative stress)-induced hair loss and depigmentation in depilated mice. The assay is classed as in vivo, mouse. Conditions: ointment with 25 μM 44-mer. The procedure:
(§1) Before use, the stock containing the 44-mer was prepared into a working dilution, which is then mixed with an antibiotic ointment containing 5 mg/g neomycin sulfate and 12.5 mg/g bacitracin to obtain an antibiotic ointment containing 25 μM of 44-mer. As to other PEDF peptides, 5 μl of 5 mM PEDF peptide stock was gradually dissolved in ethyl alcohol (30% w/w in distilled water), and then 1-oleoyl-rac-glycerol (1% w/w, a skin penetration enhancer) and light mineral oil (1% w/w) were gradually added. The solution was finally gelled by adding hydroxypropyl methylcellulose (5% w/w) to a final volume of 1 ml. A DMSO vehicle corresponding to the peptide formulation was prepared for the purpose of in vivo comparison. FITC-29-mer was also dissolved in the same formulation for applied on top of skin to determining the follicular distribution of FITC-29-mer.
(§2) For topical treatments, 350 mg ointment or gel containing 25 μM of PEDF peptide was spread gently over dorsal skin per mouse.
In this example, the relationships between the stress caused by endogenous challenge (e.g., oxidants) and hair loss and hair graying were investigated. The mice were selected and depilated as described in Example 1 above. On day-9 post-depilation, the mice were subcutaneously injected with hydrogen peroxide at a dose of 10 ml/kg body weight. […]

The test system of assay [2] is C57BL/6 mice. The assay is described as follows: Chemotherapy (CYP)-induced hair loss and depigmentation in depilated mice, topical 44-mer ointment. It is filed as in vivo, mouse. As for the experimental part: as §1, §2
For immunostaining, de-paraffinized tissue sections were blocked with 10% goat serum for 1 hour. Dual staining was done using primary antibodies against c-kit (1:100 dilution; red) and tyrosinase (1:100 dilution) at 37° C. for 2 hours, followed by incubation with the rhodamine-conjugated goat anti-rabbit IgG antibody (1:500 dilution) for 1 hour at room temperature a before counterstaining with hematoxylin (blue) for about 7 minutes.
The vibrissae follicle cryosections were washed three times in PBS. Formalin-fixed, paraffin-embedded skin specimens were deparaffinized in xylene and rehydrated in a graded series of ethanol. Sections were then stained with TdT-mediated dUTP nick-end labeling (TUNEL)-based kit (Roche Molecular Biochemicals, Indianapolis, Ind.) following the manufacturer's instructions. The cell number was monitored by counterstaining with Hoechst 33258 (blue). The nuclei were calculated in ten randomly selected fields of the three different chambers by a Zeiss epifluorescence microscope (400×, 10 fields/sample). Pictures were recorded on Zeiss software.
6-week-old female C57BL/6 mice that had normal black fur (i.e., those had heavily melanized terminal hair shafts) were used in this example. In four independent experiments, a total of 80 mice were used. C57BL-6 mice have been widely used in the research of alopecia and hair-depigmentation induced by chemotherapy. Only mice in the resting stage of the hair cycle (telogen) were used in these studies. Since pigment production (melanogenesis) in mice occurs exclusively in anagen follicles, telogen C57BL-6 mice could be recognized by the homogeneously pink color of their back skin. Anagen was induced in the back skin of telogen mice by depilation.
In order to obtain mice that were in exactly the same stage of anagen development, the dorsal hairs were carefully shaved with an electric clipper. Nine days after the depilation, hair grown to anagen phase as judged by skin color from pink (telogen skin) to gray (early stage of anagen VI).
On day-9 post-depilation, mice were anesthetized by an intraperitoneal injection of a mixture of zoletil (6 mg/kg) and xylazine (3 mg/kg). Mice were randomly assigned to the following experimental groups. In the CYP/vehicle group, mice received intraperitoneal injection of cyclophosphamide (CYP, an anti-cancer drug) (150 mg/kg), and 350 mg antibiotic ointment was applied to the back skin at the same time. […]

As for “VLLSPLSVATALSALSLGAEQRTESIIHRALYYDLISSPDIHGT [44-mer, 44-mer fragment (residues 78-121) of human PEDF]”, the “hair growth activity versus H2O2/vehicle (photographs, FIG. 4)” value with C57BL/6 mice [1] (22 days after the H2O2 injection (10 ml/kg s.c.)) is “better hair growth activity”. Also, in the assay on C57BL/6 mice [1] (22 days after the H2O2 injection), the “hair color versus H2O2/vehicle (FIG. 4)” value is listed as “darker”. The “hair growth activity versus CYP/vehicle (photographs, FIG. 1)” value with C57BL/6 mice [2] (7 and 36 days after the CYP injection) is recorded as “better hair growth activity”. Besides, the “hair colour versus CYP and CYP/vehicle groups (FIG. 1)” value in the assay on C57BL/6 mice [2] (36 days after CYP injection) is listed as “substantially darker hairs”. Further, the “TUNNEL Labeling Index (%)” value in the assay on C57BL/6 mice [2] (no CYP injection, 350 mg antibiotic ointment containing 44-mer on back skin) is given as below 0.1%; in the assay with C57BL/6 mice [2] (with CYP 150 mg/kg i.p., 350 mg antibiotic ointment containing 25 μM 44-mer on back skin daily), 10.6 ± 1.4 %. Moreover, the “c-kit and tyrosinase expression in the bulge (immunostaining, FIG. 3)” value in the assay with C57BL/6 mice [2] (with CYP, barely detected in CYP/vehicle group) was “c-kit and tyrosinase expression were found in the bulge”.
